For one assay, the system named is TDP-43. Briefly: Four TDP-43 tests (stress granule enrichment, subcellular localization, CFTR alternative splicing, G146A aggregation). The format is cell-based. The text has this: The 13 selected compounds have then been tested in the three cellular tests, i.e. enrichment of wt TDP-43 in stress granules and their subcellular localization in presence of the compounds to be tested, and the effects of the compounds to be tested on the alternative splicing of the cystic fibrosis transmembrane conductance regulator (CFTR) gene by wt TDP-43. Finally, the effects of the 13 compounds on the aggregation of the G146A mutant of TDP-43 has been tested.

The target in the next assay is T1, p53/MDM2 interaction (Homo sapiens, UniProt Q00987).
T1 construct: Human p53 and MDM2 full length cDNA were amplified by PCR; expressed in transfected cells; host or cells: U-2 OS (human osteosarcoma)
T1 sequence (Q00987 whole entry): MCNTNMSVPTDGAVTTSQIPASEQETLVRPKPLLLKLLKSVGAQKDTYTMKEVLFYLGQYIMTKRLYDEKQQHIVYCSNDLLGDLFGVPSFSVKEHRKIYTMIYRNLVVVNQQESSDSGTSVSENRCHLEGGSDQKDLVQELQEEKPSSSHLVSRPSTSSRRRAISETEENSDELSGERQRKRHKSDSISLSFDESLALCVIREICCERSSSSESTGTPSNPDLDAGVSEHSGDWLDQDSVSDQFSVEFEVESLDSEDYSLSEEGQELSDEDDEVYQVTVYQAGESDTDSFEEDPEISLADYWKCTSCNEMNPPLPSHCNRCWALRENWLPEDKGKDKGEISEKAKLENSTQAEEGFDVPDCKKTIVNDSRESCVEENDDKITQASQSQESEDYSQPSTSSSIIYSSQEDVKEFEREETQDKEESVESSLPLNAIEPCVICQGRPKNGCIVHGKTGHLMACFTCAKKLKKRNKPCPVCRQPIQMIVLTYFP
In words: MT bench cell-based assay of p53/MDM2 interaction on HCS (PCC co-localization score). The note with it: for inhibition of the p53/MDM2 interaction: U-2 OS cells.

The conditions of assay [1]: cellular data, Vu et al., 2013; read-out: IC50 MTT assay; cited from earlier work. In general terms: Tetrazolium assays rely on reduction of a dye to a coloured formazan, in cell work by metabolically active cells.
A further assay deals with MDM2-FL_C_GFP (human) (UniProt Q00987). In words: MT bench normalized PCC score, fixed U-2 OS cells.
Sequence of MDM2-FL_C_GFP (human) (Q00987 whole entry): as above

As usually defined, the IC50 is the concentration at which inhibition is half-maximal.

A value given as a limit tells only on which side of the number the result lay.

Description for p53/MDM2 interaction: The MT bench was done using Human Osteosarcoma (U-2 OS) cell line which is the reference for cellular imagery. U-2 OS cells were cultured at 37°C in a humidified atmosphere with 5% CO2 in Dulbecco's modified Eagle's medium (DMEM, Life Technologies) supplemented with 10% FBS (Fetal Bovine Serum, Life Technologies) and 1% penicillin/streptomycin.
The generation of the cellular plate (seeding, transfection, treatment) was done automatically using the liquid handler BRAVO from Agilent equipped with a 96-LT (Large Tips) head. U-2 OS cells were seeded on black 96-well plates cell carrier ultra (PerkinElmer) at a density of 18.000 cells per well and after 24h incubation in a humidified incubator at 37°C with 5% CO2 were co-transfected with 12µg human p53-FL(SEQ ID N°15)_C_RFP- MBD and 03µg human MDM2-FL(SEQ ID N°21)_C_GFP plasmids for the positive control (untreated condition) or 12µg human p53-F19AW23AL26A(SEQ ID N°20)_C_RFP-MBD and 0.3µg human MDM2-FL(SEQ ID N°21)_C_GFP plasmids corresponding to the negative control (non-interacting condition / treated condition) using 0.5µg Lipofectamine 2000 (Invitrogen) in optiMEM for 18h.
After 18h of transfection, cells were fixed with ice-cold methanol 100% for 10min at -20°C, washed with PBS and then further fixed with 4% Para FormAldehyde (PFA) in PBS freshly prepared for 10min at RT. […] After washing with PBS, cell nuclei were stained with DAPI (0.1µg/mL) for 5min at RT and samples kept into PBS for fluorescence microscopy imaging. The cellular fluorescent signal was acquired on HCS imaging system Opera Phenix from PerkinElmer, using a 40X water immersion 1.1NA objective and with Harmony® software.
After image acquisition, successive building blocks from Harmony® software was used for image segmentation (find nuclei, find cytoplasm, and select population through threshold on GFP and RFP maximum and mean intensities, as well as cell area). Both images were then filtered using SER Ridge filters to highlight microtubule structures in the cytoplasm.
The PCC is a well-established correlation score to measure co-localization and calculated as follows [formula] where Ri and Gi are the pixel intensity values and Rav and Gav are the means of red and green channel, respectively. The values are range between +1 (perfect correlation) to -1 (perfect inverse correlation), with 0 being the absence of co-localization. Thus, the PCC values reflect the co-localization between bait and prey proteins into cytoplasm, translating the interaction on the microtubule network.
This normalization was done by extrapolating the PCC values relatively to the controls, by using the mean of negative control wells and the mean of positive control wells.

`Nc1ncnc2c1c(I)cn2[C@@H]1O[C@H](CO)[C@@H](O)[C@H]1O` [5-iodotubercidin]: the “effect in the four tests” value in the assay on TDP-43 is on record as “showed an effect on at least two of the four tests”.
On the same count and under the same terms, as for `O=C1C(=O)c2ccccc2-c2ccccc21` [9,10-Phenanthrenequinone], the entry is “showed an effect on at least two of the four tests”.
The same measure, in the same setting: next, `O=C1Nc2ccc3ncsc3c2C1=Cc1cnc[nH]1` [PKRi]: “showed an effect on at least two of the four tests”.
Regarding `CCOc1cc(C(C)(C)C)ccc1C1=N[C@@](C)(c2ccc(Cl)cc2)[C@@](C)(c2ccc(Cl)cc2)N1C(=O)N1CCN(CCCS(C)(=O)=O)CC1` [RG7112], the “inhibition of the p53/MDM2 interaction” value was “weak inhibition of the interaction” at p53/MDM2 interaction (0.05µM (low concentration)), “moderate inhibition of the interaction” at p53/MDM2 interaction (0.5µM (medium concentration)), “strong inhibition of the interaction” against p53/MDM2 interaction (5µM (high concentration)) and “strong inhibition of the interaction” at p53/MDM2 interaction (50µM (high concentration)). On p53/MDM2 interaction (increasing concentrations 0.05µM, 0.5µM, 5µM, 50µM, fixed U-2 OS cells), the “disruption of p53/MDM2 interaction and re-localization of MDM2 in the nucleus” value is reported as “dose-dependent manner”. For the same compound, the half-inhibitory concentration (IC50) in assay [1] was 400 nM.
p53-F19A_C_RFP-MBD yielded a percent of the interaction abrogated (against wild-type p53) with MDM2-FL_C_GFP (human) above 90%.

The values above are taken from patent EP4459287A1, “METHODS AND TOOLS FOR DETECTING THE IMPACT OF COMPOUNDS ON PROTEIN, RNA OR DNA INTERACTIONS” (Synsight "Génopole Entreprises", priority 2023, dated 2024).
